Data set [1] deals with Botrytis cinerea. The experiment in a line: Test on preventive effect against kidney bean gray mold. It counts as in vivo. The note with it: 500 ppm, spray on kidney bean (Taisyou Kintoki), 3 to 4 days after inoculation.
Data set [2] deals with sheath blight of rice. The note with it: as disclosed in Patent Document 2 (JP-A-2005-179234); cited from earlier work.
The test system of data set [3] is Erysiphe graminis. The note with it: 500 ppm, spray on wheat (Norin-61-go) at 1.5-leaf stage, preventive, 6 to 7 days after inoculation.
Method: In each test, the controlling index was determined on the basis of the following standards:
Wheat (cultivar: Norin-61-go) was cultivated in a plastic pot having a diameter of 7.5 cm, and when it reached 1.5-leaf stage, 10 ml of a chemical solution having the carboxylic acid amide derivative of the formula (I) or a salt thereof adjusted to a prescribed concentration, was applied by a spray gun. After the chemical solution dried (the same day as the application), conidia of Erysiphe graminis were dusted and inoculated and maintained in a constant temperature chamber at 20° C. From 6 to 7 days after the inoculation, the area of sporulation was investigated, and the controlling index was determined in accordance with the above evaluation standards.

As for `CC(C)(NC(=O)c1ccncc1F)C(=O)c1ccc(-c2ccc(OC(F)(F)F)cc2)cc1` [Comparative Compound 1, 3-fluoro-N-(2-methyl-1-oxo-1-(4′-(trifluoromethoxy)biphenyl-4-yl)propan-2-yl)isonicotinamide], in data set [1], the “controlling index (length of lesions)” value was 1 (Length of lesions, number of lesions or area of sporulation is at least 70% of non-treated plot). Besides, the “effect against sheath blight of rice” value in data set [2] is recorded as “effective”. For the same compound, the “controlling index (area of sporulation)” value in data set [3] is reported as 1 (Length of lesions, number of lesions or area of sporulation is at least 70% of non-treated plot).
Turning to `Cc1c(C(=O)C(C)(C)NC(=O)c2ncccc2C(F)(F)F)ccc2c1OC(F)(F)O2` [compound No. 2-1, N-[2-[(2,2-difluoro-4-methyl-1,3-benzodioxolan-5-yl)carbonyl]-2-propyl]-3-trifluoromethyl-2-pyridinecarboxamide], the melting point – broadly, the temperature of the solid-liquid transition – was 130 to 134 °C.
